# ChEMBL document CHEMBL1133669 (J Med Chem, 2000)
# Experiments:
# [1] = biological target: T1, Carbonic anhydrase 4 (Bos taurus, UniProt Q95323)
# T1 sequence (Q95323 whole entry): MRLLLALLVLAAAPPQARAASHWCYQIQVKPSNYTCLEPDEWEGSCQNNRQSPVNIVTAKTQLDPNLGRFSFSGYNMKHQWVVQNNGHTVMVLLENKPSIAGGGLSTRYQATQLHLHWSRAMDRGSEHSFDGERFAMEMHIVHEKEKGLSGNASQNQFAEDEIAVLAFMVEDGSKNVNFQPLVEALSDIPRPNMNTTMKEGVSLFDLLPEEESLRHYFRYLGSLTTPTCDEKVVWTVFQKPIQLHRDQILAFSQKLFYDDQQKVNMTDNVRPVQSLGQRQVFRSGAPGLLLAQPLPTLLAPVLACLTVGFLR
# Description: Inhibitory activity against bovine carbonic anhydrase IV (CA4), isolated from bovine lung microsomes
# [2] = biological target: Carbonic anhydrase 1 (Homo sapiens, UniProt P00915)
# Chain of Carbonic anhydrase 1 (P00915 whole entry): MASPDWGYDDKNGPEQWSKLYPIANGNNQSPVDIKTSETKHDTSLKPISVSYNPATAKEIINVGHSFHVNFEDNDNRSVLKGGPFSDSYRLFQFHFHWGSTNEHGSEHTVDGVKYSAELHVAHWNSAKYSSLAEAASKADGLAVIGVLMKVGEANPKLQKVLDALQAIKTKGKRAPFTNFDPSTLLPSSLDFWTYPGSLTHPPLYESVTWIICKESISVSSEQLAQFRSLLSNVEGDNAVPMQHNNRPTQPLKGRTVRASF
# Description: Inhibitory activity against human carbonic anhydrase I (CA1)
Compound,Ki [1],Ki [2]
Cc1cc(-c2ccccc2)cc(C)[n+]1CC(=O)Nc1ccc2nc(S(N)(=O)=O)sc2c1,19 nM,10 nM
CCc1cc(-c2ccccc2)cc(CC)[n+]1CC(=O)Nc1c(S(N)(=O)=O)cc(S(N)(=O)=O)c(Cl)c1Cl,35 nM,400 nM
CCc1cc(-c2ccccc2)cc(CC)[n+]1CC(=O)NNc1ccc(S(N)(=O)=O)cc1,340 nM,28000 nM
Cc1cc(-c2ccccc2)cc(C)[n+]1CC(=O)/N=c1/sc(S(N)(=O)=O)nn1C,16 nM,200 nM
Cc1cc(-c2ccccc2)cc(C)[n+]1CC(=O)OCCc1ccc(S(N)(=O)=O)cc1,69 nM,1100 nM
Cc1cc(C)[n+](CC(=O)Oc2ccc3nc(S(N)(=O)=O)sc3c2)c(C)c1,29 nM,13 nM
CCc1cc(-c2ccccc2)cc(CC)[n+]1CC(=O)Nc1cc(Cl)c(S(N)(=O)=O)cc1S(N)(=O)=O,36 nM,350 nM
CCc1cc(-c2ccccc2)cc(CC)[n+]1CC(=O)Nc1ccc(S(N)(=O)=O)cc1F,39 nM,750 nM
Cc1cc(C)[n+](CC(=O)Nc2cc(C(F)(F)F)c(S(N)(=O)=O)cc2S(N)(=O)=O)c(C)c1,58 nM,320 nM
Cn1nc(S(N)(=O)=O)s/c1=N/S(=O)(=O)c1ccc(N)cc1,0.8 nM,1 nM
Cc1cc(-c2ccccc2)cc(C)[n+]1CC(=O)Nc1cc(C(F)(F)F)c(S(N)(=O)=O)cc1S(N)(=O)=O,33 nM,300 nM
Cc1cc(C)[n+](CC(=O)NCCc2ccc(S(N)(=O)=O)cc2)c(C)c1,71 nM,805 nM
Cc1cc(-c2ccccc2)cc(C)[n+]1CC(=O)Nc1ccc(S(N)(=O)=O)cc1I,59 nM,610 nM
Cc1cc(C)[n+](CC(=O)OCCOc2ccc3nc(S(N)(=O)=O)sc3c2)c(C)c1,33 nM,12 nM
Cc1cc(C)[n+](CC(=O)Nc2ccc(S(N)(=O)=O)cc2I)c(C)c1,78 nM,810 nM
Cc1cc(C)[n+](CC(=O)Nc2cc(Cl)c(S(N)(=O)=O)cc2S(N)(=O)=O)c(C)c1,64 nM,360 nM
Cc1cc(-c2ccccc2)cc(C)[n+]1CC(=O)Nc1cc(Cl)c(S(N)(=O)=O)cc1S(N)(=O)=O,30 nM,350 nM
Cc1cc(C)[n+](CC(=O)Nc2c(S(N)(=O)=O)cc(S(N)(=O)=O)c(Cl)c2Cl)c(C)c1,67 nM,550 nM
CCc1cc(-c2ccccc2)cc(CC)[n+]1CC(=O)Nc1ccc(S(N)(=O)=O)cc1Br,55 nM,615 nM
Cc1cc(-c2ccccc2)cc(C)[n+]1CC(=O)Nc1nccc(Nc2ccc(S(N)(=O)=O)cc2)n1,50 nM,35 nM
Cc1cc(C)[n+](CC(=O)Nc2ccc3nc(S(N)(=O)=O)sc3c2)c(C)c1,50 nM,15 nM
CCc1cc(-c2ccccc2)cc(CC)[n+]1CC(=O)Nc1ccc(S(N)(=O)=O)cc1,170 nM,15000 nM
Cc1cc(-c2ccccc2)cc(C)[n+]1CC(=O)Oc1ccc2nc(S(N)(=O)=O)sc2c1,17 nM,11 nM
CCc1cc(-c2ccccc2)cc(CC)[n+]1CC(=O)NCCc1ccc(S(N)(=O)=O)cc1,61 nM,750 nM

Compound,Ki [1],Ki [2]
CCc1cc(-c2ccccc2)cc(CC)[n+]1CC(=O)NCCC(=O)Nc1nnc(S(N)(=O)=O)s1,19 nM,
Cc1cc(C)[n+](CC(=O)Nc2nnc(S(N)(=O)=O)s2)c(C)c1,50 nM,300 nM
CCc1cc(-c2ccccc2)cc(CC)[n+]1CC(=O)OCCOc1ccc2nc(S(N)(=O)=O)sc2c1,25 nM,10 nM
Cc1cc(-c2ccccc2)cc(C)[n+]1CC(=O)Nc1ccc(S(N)(=O)=O)cc1F,36 nM,700 nM
CCc1cc(-c2ccccc2)cc(CC)[n+]1CC(=O)Nc1cc(C(F)(F)F)c(S(N)(=O)=O)cc1S(N)(=O)=O,33 nM,310 nM
CCc1cc(-c2ccccc2)cc(CC)[n+]1CC(=O)OCc1ccc(S(N)(=O)=O)cc1,97 nM,1700 nM
Cc1cc(C)[n+](CC(=O)Nc2ccccc2S(N)(=O)=O)c(C)c1,425 nM,32000 nM
Cc1cc(C)[n+](CC(=O)Nc2cccc(S(N)(=O)=O)c2)c(C)c1,410 nM,24000 nM
CCc1cc(-c2ccccc2)cc(CC)[n+]1CC(=O)NCc1ccc(S(N)(=O)=O)cc1,67 nM,1400 nM
Cc1cc(C)[n+](CC(=O)NCc2ccc(S(N)(=O)=O)cc2)c(C)c1,80 nM,1500 nM
Cc1cc(-c2ccccc2)cc(C)[n+]1CC(=O)Nc1ccc(S(N)(=O)=O)cc1Br,35 nM,600 nM
"Nc1cc(C(F)(F)F)c(S(N)(=O)=O)cc1S(N)(=O)=O [2,4-DISULFAMYLTRIFLUOROMETHYLANILINE]",140 nM,
Cc1cc(C)[n+](CC(=O)Nc2ccc(S(N)(=O)=O)cc2Cl)c(C)c1,70 nM,680 nM
Cc1cc(C)[n+](CC(=O)NNc2ccc(S(N)(=O)=O)cc2)c(C)c1,450 nM,35000 nM
CCc1cc(-c2ccccc2)cc(CC)[n+]1CC(=O)Nc1cccc(S(N)(=O)=O)c1,310 nM,21800 nM
Cc1cc(C)[n+](CC(=O)/N=c2/sc(S(N)(=O)=O)nn2C)c(C)c1,60 nM,330 nM
Cc1cc(C)[n+](CC(=O)Nc2nccc(Nc3ccc(S(N)(=O)=O)cc3)n2)c(C)c1,69 nM,52 nM
Cc1cc(-c2ccccc2)cc(C)[n+]1CC(=O)Nc1ccc(S(=O)(=O)Nc2ccc(S(N)(=O)=O)cc2)cc1,54 nM,41 nM
Cc1cc(C)[n+](CC(=O)Nc2ccc(S(=O)(=O)/N=c3/sc(S(N)(=O)=O)nn3C)cc2)c(C)c1,,15 nM
Cc1cc(-c2ccccc2)cc(C)[n+]1CC(=O)Nc1c(S(N)(=O)=O)cc(S(N)(=O)=O)c(Cl)c1Cl,31 nM,380 nM
Cc1cc(C)[n+](CC(=O)Nc2ccc(S(N)(=O)=O)cc2Br)c(C)c1,77 nM,800 nM
Cc1cc(C)[n+](CC(=O)Nc2ccc(S(=O)(=O)Nc3nnc(S(N)(=O)=O)s3)cc2)c(C)c1,12 nM,15 nM
Cc1cc(-c2ccccc2)cc(C)[n+]1CC(=O)Nc1ccc(S(=O)(=O)Nc2cccc(S(N)(=O)=O)c2)cc1,55 nM,38 nM
Cc1cc(-c2ccccc2)cc(C)[n+]1CC(=O)NCCC(=O)Nc1nnc(S(N)(=O)=O)s1,15 nM,

# Further lines, results first:
Ki [1],Ki [2],Compound
30 nM,11 nM,CC(C)c1cc(-c2ccccc2)cc(C(C)C)[n+]1CC(=O)OCCOc1ccc2nc(S(N)(=O)=O)sc2c1
70 nM,775 nM,CC(C)c1cc(-c2ccccc2)cc(C(C)C)[n+]1CC(=O)NCCc1ccc(S(N)(=O)=O)cc1
56 nM,600 nM,CC(C)c1cc(-c2ccccc2)cc(C(C)C)[n+]1CC(=O)Nc1ccc(S(N)(=O)=O)cc1Cl
280 nM,19600 nM,Cc1cc(-c2ccccc2)cc(C)[n+]1CC(=O)Nc1cccc(S(N)(=O)=O)c1
70 nM,645 nM,CC(C)c1cc(-c2ccccc2)cc(C(C)C)[n+]1CC(=O)Nc1ccc(S(N)(=O)=O)cc1Br
39 nM,12 nM,CC(C)c1cc(-c2ccccc2)cc(C(C)C)[n+]1CC(=O)Oc1ccc2nc(S(N)(=O)=O)sc2c1
335 nM,27500 nM,CCc1cc(-c2ccccc2)cc(CC)[n+]1CC(=O)Nc1ccccc1S(N)(=O)=O
38 nM,13 nM,CC(C)c1cc(-c2ccccc2)cc(C(C)C)[n+]1CC(=O)Nc1ccc2nc(S(N)(=O)=O)sc2c1
75 nM,630 nM,CC(C)c1cc(-c2ccccc2)cc(C(C)C)[n+]1CC(=O)Nc1ccc(S(N)(=O)=O)cc1I
73 nM,50 nM,CC(C)c1cc(-c2ccccc2)cc(C(C)C)[n+]1CC(=O)Nc1ccc(S(=O)(=O)Nc2ccc(S(N)(=O)=O)cc2)cc1
75 nM,1450 nM,CC(C)c1cc(-c2ccccc2)cc(C(C)C)[n+]1CC(=O)NCc1ccc(S(N)(=O)=O)cc1
46 nM,350 nM,CC(C)c1cc(-c2ccccc2)cc(C(C)C)[n+]1CC(=O)Nc1cc(Cl)c(S(N)(=O)=O)cc1S(N)(=O)=O
180 nM,15000 nM,CC(C)c1cc(-c2ccccc2)cc(C(C)C)[n+]1CC(=O)Nc1ccc(S(N)(=O)=O)cc1
39 nM,750 nM,CC(C)c1cc(-c2ccccc2)cc(C(C)C)[n+]1CC(=O)Nc1ccc(S(N)(=O)=O)cc1F
345 nM,23100 nM,CC(C)c1cc(-c2ccccc2)cc(C(C)C)[n+]1CC(=O)Nc1cccc(S(N)(=O)=O)c1
42 nM,310 nM,CC(C)c1cc(-c2ccccc2)cc(C(C)C)[n+]1CC(=O)Nc1cc(C(F)(F)F)c(S(N)(=O)=O)cc1S(N)(=O)=O
10 nM,14 nM,CC(C)c1cc(-c2ccccc2)cc(C(C)C)[n+]1CC(=O)Nc1ccc(S(=O)(=O)Nc2nnc(S(N)(=O)=O)s2)cc1
36 nM,,CC(C)c1cc(-c2ccccc2)cc(C(C)C)[n+]1CC(=O)Nc1nnc(S(N)(=O)=O)s1
49 nM,470 nM,CC(C)c1cc(-c2ccccc2)cc(C(C)C)[n+]1CC(=O)Nc1c(S(N)(=O)=O)cc(S(N)(=O)=O)c(Cl)c1Cl
350 nM,30500 nM,CC(C)c1cc(-c2ccccc2)cc(C(C)C)[n+]1CC(=O)Nc1ccccc1S(N)(=O)=O
290 nM,25300 nM,Cc1cc(-c2ccccc2)cc(C)[n+]1CC(=O)Nc1ccccc1S(N)(=O)=O
38 nM,600 nM,Cc1cc(-c2ccccc2)cc(C)[n+]1CC(=O)Nc1ccc(S(N)(=O)=O)cc1Cl
16 nM,,CC(C)c1cc(-c2ccccc2)cc(C(C)C)[n+]1CC(=O)NCCC(=O)Nc1nnc(S(N)(=O)=O)s1
